Test results taken from patent US10842785B2, “PIM kinase inhibitors in combination with RNA splicing modulators/inhibitors for treatment of cancers” (UNIVERSITY OF MARYLAND, BALTIMORE COUNTY, priority 2016, dated 2020).
Entries after “also recorded” stand apart in the source; their conditions may differ.

Experiments:
Assay type in all cases: cell-based
EOL1 cells = test: MTT assay (number of live cells), EOL1 cells, single inhibitors and combination, Compusyn CI; settings: for Effect (fraction of cells affected, FA): 48 hours
Protocol: (§1) General experimental procedure: 10,000 (MOLM16) or 20,000 (EOL1) cells were seeded per well in 96-well plates. After culturing overnight, AZD1208 and/or Pladienolide B/SRPIN340 were added to wells in quadruplicates at 5 different concentrations. Different ratios between AZD1208 and Pladienolide B were tried in MOLM16 and EOL1 cells. At 48 hours the MTT metabolism indicative of number of live cells was measured by MTT assay (Promega, Cat: G4000). The resulting values were used to evaluate the Fa (fraction affected) values, which were plugged into the Compusyn software to calculate the combination indices (CI values) at ED50, ED75, ED90 and ED95 (ED—Effective dose of combination).
To further confirm the finding in MOLM16 cells, it was tested whether the combination of AZD1208 and Pladienolide B is synergistic in another AML cell line—EOL1. Different ratios between AZD1208 and Pladienolide B were tested to identify the ideal ratio that provides maximum synergy.

MOLM16 cells = test: MTT assay (number of live cells), MOLM16 cells, single inhibitors and combination, Compusyn CI; settings: 48 hours
Protocol: as §1
These values of drug dose and effect (fraction of cells affected by the treatment—FA values) were input into the Compusyn software to estimate the interaction between the two drugs.

[1] = system: SR protein phosphorylation; test: Western blot using phospho-SR protein antibody; settings: MOLM16 and EOL1 cells, versus DMSO treated controls
Protocol: MOLM16 and EOL1 cells were treated with AZD1208 or SRPIN340 for indicated concentration and time. Cells lysates from treated cells were used for western blot analysis.
Phosphorylation of splicing factors is known to play a role in regulation of splicing. Phosphorylation of splicing factors called serine arginine rich proteins (SR proteins) is known to regulate their function and localization. Serine arginine rich protein kinases (SRPK1 and SRPK2) phosphorylate these proteins and inhibition of SRPK activity using the small molecule modulator SRPIN340 leads to reduction in phosphorylation. The level of SR protein phosphorylation can be visualized using phospho-SR protein antibody. It was investigated to determine if PIM kinases regulate SRPK activity to indirectly lead to changes in splicing. […] Thus, it was concluded that the SRPK activity was not affected by PIM kinase inhibition.

MCL1 splice variants = test: Taqman qRT-PCR for MCL1 splice variants in MOLM16 cells; settings: MOLM16, 20 μM, 24 hours
Excerpt: Control=DMSO treated. […] Arrow indicate bands that change after AZD1208 treatment.
A few targets from the microarray data were chosen, that being, ones that were affected by PIM kinase inhibition. The procedure was manual curation of data, followed by reference seq analysis of splice variants to determine avalibilty of sequence information. Initially, changes in splice variants of a known apoptotic regulator, MCL1 were validated. The smaller isoform of MCL1 is pro-apototic, while the longer isoform has anti-apototic functions.

## CCC(O)C(C)C1OC1CC(C)/C=C/C=C(\C)C1OC(=O)CC(O)CCC(C)(O)C(OC(C)=O)/C=C/C1C (stereo not drawn) [Pladienolide B, pladienolide B]
EOL1 cells; EOL1, Trial 1
  relative sensitivity of the cells to the two drugs: more sensitive to Pladienolide B than AZD1208
EOL1 cells; EOL1, Trial 1, 0.001 μM
  Effect (fraction of cells affected, FA): 0.315
EOL1 cells; EOL1, Trial 1, 0.002 μM
  Effect (fraction of cells affected, FA): 0.633
EOL1 cells; EOL1, Trial 1, 0.003 μM
  Effect (fraction of cells affected, FA): 0.890
EOL1 cells; EOL1, Trial 1, 0.004 μM
  Effect (fraction of cells affected, FA): 0.957
EOL1 cells; EOL1, Trial 1, 0.005 μM
  Effect (fraction of cells affected, FA): 0.982
EOL1 cells; EOL1, Trial 2, 0.0005 μM
  Effect (fraction of cells affected, FA): 0.060
EOL1 cells; EOL1, Trial 2, 0.001 μM
  Effect (fraction of cells affected, FA): 0.351
EOL1 cells; EOL1, Trial 2, 0.0015 μM
  Effect (fraction of cells affected, FA): 0.528
EOL1 cells; EOL1, Trial 2, 0.002 μM
  Effect (fraction of cells affected, FA): 0.706
EOL1 cells; EOL1, Trial 2, 0.0025 μM
  Effect (fraction of cells affected, FA): 0.820
EOL1 cells; EOL1, Trial 3, 0.0005 μM
  Effect (fraction of cells affected, FA): 0.095
EOL1 cells; EOL1, Trial 3, 0.001 μM
  Effect (fraction of cells affected, FA): 0.360
EOL1 cells; EOL1, Trial 3, 0.0015 μM
  Effect (fraction of cells affected, FA): 0.542
EOL1 cells; EOL1, Trial 3, 0.002 μM
  Effect (fraction of cells affected, FA): 0.667
EOL1 cells; EOL1, Trial 3, 0.0025 μM
  Effect (fraction of cells affected, FA): 0.814
MOLM16 cells; MOLM16, Trial 1, 0.002 μM
  Effect (fraction of cells affected, FA): 0.517
MOLM16 cells; MOLM16, Trial 1, 0.004 μM
  Effect (fraction of cells affected, FA): 0.599
MOLM16 cells; MOLM16, Trial 1, 0.006 μM
  Effect (fraction of cells affected, FA): 0.711
MOLM16 cells; MOLM16, Trial 1, 0.008 μM
  Effect (fraction of cells affected, FA): 0.726
MOLM16 cells; MOLM16, Trial 1, 0.01 μM
  Effect (fraction of cells affected, FA): 0.757
MOLM16 cells; MOLM16, Trial 2, 0.002 μM
  Effect (fraction of cells affected, FA): 0.487
MOLM16 cells; MOLM16, Trial 2, 0.004 μM
  Effect (fraction of cells affected, FA): 0.676
MOLM16 cells; MOLM16, Trial 2, 0.006 μM
  Effect (fraction of cells affected, FA): 0.752
MOLM16 cells; MOLM16, Trial 2, 0.008 μM
  Effect (fraction of cells affected, FA): 0.821
MOLM16 cells; MOLM16, Trial 2, 0.01 μM
  Effect (fraction of cells affected, FA): 0.862
MOLM16 cells; MOLM16, Trial 3, 0.002 μM
  Effect (fraction of cells affected, FA): 0.393
MOLM16 cells; MOLM16, Trial 3, 0.004 μM
  Effect (fraction of cells affected, FA): 0.607
MOLM16 cells; MOLM16, Trial 3, 0.006 μM
  Effect (fraction of cells affected, FA): 0.696
MOLM16 cells; MOLM16, Trial 3, 0.008 μM
  Effect (fraction of cells affected, FA): 0.749
MOLM16 cells; MOLM16, Trial 3, 0.01 μM
  Effect (fraction of cells affected, FA): 0.814

## O=C(Nc1cc(C(F)(F)F)ccc1N1CCCCC1)c1ccncc1 [SRPIN340, N-[2-(1-Piperidinyl)-5-(trifluoromethyl)phenyl]-4-pyridinecarboxamide]
[1]
  SR protein phosphorylation: reduction in phosphorylation signal; also recorded: phosphorylation of SR proteins changes
MCL1 splice variants
  changes in MCL1 splicing: Changes in MCL1 splicing were not observed
MOLM16 cells; MOLM16, SRPIN340 testing Trial 1, 5 μM
  Effect (fraction of cells affected, FA): 0.004
MOLM16 cells; MOLM16, SRPIN340 testing Trial 1, 10 μM
  Effect (fraction of cells affected, FA): 0.014
MOLM16 cells; MOLM16, SRPIN340 testing Trial 1, 20 μM
  Effect (fraction of cells affected, FA): 0.385
